Laboratory results published in patent US20260083704A1, “LXR MODULATORS WITH BICYCLIC CORE MOIETY FOR TREATING DYSLIPIDEMIAS” (OrsoBio, Inc., priority 2022, published 2026).
“Also recorded” adds a separate entry of the source. Marks after values point to notes of the source that are not given here.

How the values were obtained:
[1] = Plasma and liver exposures in mice dosed 1 mg/kg by oral gavage; format: in vivo; settings: 1 mg/kg oral gavage
Method: (§1) Data are shown as mean±SD. N=3-8 wells per treatment.
(§2) The efficacy of Compound 21/3 and Compound pre-6/3 were evaluated in diet-induced obese (DIO) mouse and rat models.

[2] = tested on: LXR target genes in the liver; experiment: Liver LXR target gene expression 24 hours after a single oral dose in mice; format: in vivo; settings: 24 hours post-dose
Method: as §1, §2

healthy subjects [3] = experiment: Phase 1 study, MAD cohorts: safety and tolerability; format: in vivo, human; settings: for Abdominal pain / Any TEAE / Back pain / Diarrhea / Grade ≥2 TEAE / Headache / Pruritis / Serious TEAE / TEAE leading to study drug discontuation / Treatment-related TEAE / subjects with mild (Grade 1), transient increase in serum ALT: MAD; for Abdominal pain / Any TEAE / Back pain / Diarrhea / Grade ≥2 TEAE / Headache / Pruritis / Serious TEAE / TEAE leading to study drug discontuation / Treatment-related TEAE: n = 8
Method: A double-blind, placebo-controlled, single- and multiple-ascending dose FIH Phase 1 study to evaluate the safety, tolerability, PK, and PD of Compound 21/3 in healthy adult subjects was performed. A total of up to 150 subjects were enrolled, including 100 subjects in Parts A and B, and up to 50 subjects in adaptive cohorts in Part C. Within each cohort, 10 subjects were randomized, including 8 subjects randomized to Compound 21/3 and 2 subjects to PTM (placebo-to-match). In single-dose cohorts in Parts A and in any Part C cohort evaluating a higher total daily dose than previously evaluated, safety and tolerability data collected through Day 2 from two sentinel subjects, one randomized to Compound 21/3 and one to PTM, were evaluated prior to dosing of the remaining subjects in each cohort.
An approximately even distribution of healthy male and non-pregnant, non-lactating female subjects 18 to 55 years of age, inclusive, were to be enrolled in the study. There were no significant medical conditions by history, physical examination, or laboratory evaluation. Subjects were not allowed to participate in more than one cohort of the study. Within each MAD cohort, attempts were made to enrich for >3 subjects with elevated TG and/or LDL-C. Following the completion of Screening and admission assessments, eligible subjects were to be enrolled on Day −1. Safety and tolerability assessments, including adverse event (AE) monitoring, laboratory tests, physical examinations, and ECG evaluations were performed throughout the study.
The severity of AEs was graded using the Common Terminology Criteria for Adverse Events version 5.0 (CTCAE v5.0).

healthy subjects [4] = experiment: Phase 1 study, MAD cohorts: serum lipid parameters by NMR LipoProfile; format: in vivo, human; settings: Day 1 to Day 14
Method: Lipid parameters, including apolipoprotein B (apoB), were evaluated by NMR LipoProfile® (Labcorp, Burlington, NC. Plasma ApoC3 and ANGPTL3 were evaluated by ELISA (360biolabs, Melbourne, Australia). Peripheral RCT (reverse cholesterol transport) were evaluated by assessing changes in expression of ABCA1/ABCG1 in PBMCs, predose and 4 hours postdose on Days 1 and 14 (Gnomix, Bedford Park, Australia).
Methods. In a randomized, double-blind, placebo (PBO)-controlled Phase 1 study, healthy subjects (n=8/2 Compound 21/3 vs PBO/cohort) received single ascending doses (SAD) of Compound 21/3 (0.5, 2, 6, 12, or 20 mg) or multiple ascending doses (MAD) QD for 14 days (0.5, 2, 6, or 12 mg) while fed or 6 mg fasted. Safety, PK, serum lipid parameters by NMR LipoProfile®, and gene expression in PBMCs were evaluated.
Results. The proportion of subjects with adverse events (AEs) was 60% with PBO and 13-50% with Compound 21/3 in the SAD cohorts (n=50), and 40% and 13-88%, respectively, in the MAD cohorts (n=50). All AEs were mild except an unrelated, Grade 2 thrombophlebitis in a subject on Compound 21/3 2 mg. […] With fasted dosing, exposures were similar on Days 1 and 14 and ˜3-fold higher than with fed dosing. […] In FIG. 13A-13H, figures on graphs indicate median relative (%) change in predose NMR Lipoprofile® parameter from Day 1 to Day 14. […]

Structure (SMILES): N#Cc1cccc(C#N)c1-c1c(-c2cccc(-c3ccc(C(=O)NCC(=O)O)cc3Cl)c2)n(S(=O)(=O)c2ccc(C(F)F)cc2)c2ccc(F)cc12 [Compound 21/3]
- liver exposures compared with Compound pre-6/3 [1]: higher and sustained liver exposures
- plasma exposures compared with Compound pre-6/3 [1]: lower plasma exposures
- target engagement in the liver (expression of LXR target genes) [2]: sustained target engagement
- Abdominal pain (healthy subjects [3]; 0.5 mg, fed): 1 (13)
- Any TEAE (healthy subjects [3]; 0.5 mg, fed): 7 (88)
- Back pain (healthy subjects [3]; 0.5 mg, fed): 0 (0)
- Diarrhea (healthy subjects [3]; 0.5 mg, fed): 2 (25)
- Grade ≥2 TEAE (healthy subjects [3]; 0.5 mg, fed): 0 (0)
- Headache (healthy subjects [3]; 0.5 mg, fed): 1 (13)
- Pruritis (healthy subjects [3]; 0.5 mg, fed): 4 (50)
- Serious TEAE (healthy subjects [3]; 0.5 mg, fed): 0 (0)
- TEAE leading to study drug discontuation (healthy subjects [3]; 0.5 mg, fed): 0 (0)
- Treatment-related TEAE (healthy subjects [3]; 0.5 mg, fed): 0 (0)
- Abdominal pain (healthy subjects [3]; 2 mg, fed): 0 (0)
- Any TEAE (healthy subjects [3]; 2 mg, fed): 3 (38)
- Back pain (healthy subjects [3]; 2 mg, fed): 0 (0)
- Diarrhea (healthy subjects [3]; 2 mg, fed): 0 (0)
- Headache (healthy subjects [3]; 2 mg, fed): 0 (0)
- Pruritis (healthy subjects [3]; 2 mg, fed): 0 (0)
- Serious TEAE (healthy subjects [3]; 2 mg, fed): 0 (0)
- TEAE leading to study drug discontuation (healthy subjects [3]; 2 mg, fed): 0 (0)
- Treatment-related TEAE (healthy subjects [3]; 2 mg, fed): 0 (0)
- Grade ≥2 TEAE (healthy subjects [3]; 2 mg, fed, Grade 2 thrombophlebitis considered unrelated to study treatment): 1 (13)*
- Abdominal pain (healthy subjects [3]; 6 mg (fasted)): 1 (13)
- Any TEAE (healthy subjects [3]; 6 mg (fasted)): 1 (13)
- Back pain (healthy subjects [3]; 6 mg (fasted)): 0 (0)
- Diarrhea (healthy subjects [3]; 6 mg (fasted)): 0 (0)
- Grade ≥2 TEAE (healthy subjects [3]; 6 mg (fasted)): 0 (0)
- Headache (healthy subjects [3]; 6 mg (fasted)): 0 (0)
- Pruritis (healthy subjects [3]; 6 mg (fasted)): 0 (0)
- Serious TEAE (healthy subjects [3]; 6 mg (fasted)): 0 (0)
- TEAE leading to study drug discontuation (healthy subjects [3]; 6 mg (fasted)): 0 (0)
- Treatment-related TEAE (healthy subjects [3]; 6 mg (fasted)): 0 (0)
- Abdominal pain (healthy subjects [3]; 6 mg, fed): 1 (13)
- Any TEAE (healthy subjects [3]; 6 mg, fed): 5 (63)
- Back pain (healthy subjects [3]; 6 mg, fed): 2 (25)
- Diarrhea (healthy subjects [3]; 6 mg, fed): 1 (13)
- Grade ≥2 TEAE (healthy subjects [3]; 6 mg, fed): 0 (0)
- Headache (healthy subjects [3]; 6 mg, fed): 1 (13)
- Pruritis (healthy subjects [3]; 6 mg, fed): 0 (0)
- Serious TEAE (healthy subjects [3]; 6 mg, fed): 0 (0)
- TEAE leading to study drug discontuation (healthy subjects [3]; 6 mg, fed): 0 (0)
- Treatment-related TEAE (healthy subjects [3]; 6 mg, fed): 1 (13)
- Abdominal pain (healthy subjects [3]; 12 mg, fed): 1 (13)
- Any TEAE (healthy subjects [3]; 12 mg, fed): 3 (38)
- Back pain (healthy subjects [3]; 12 mg, fed): 0 (0)
- Diarrhea (healthy subjects [3]; 12 mg, fed): 2 (25)
- Grade ≥2 TEAE (healthy subjects [3]; 12 mg, fed): 0 (0)
- Headache (healthy subjects [3]; 12 mg, fed): 2 (25)
- Pruritis (healthy subjects [3]; 12 mg, fed): 0 (0)
- Serious TEAE (healthy subjects [3]; 12 mg, fed): 0 (0)
- TEAE leading to study drug discontuation (healthy subjects [3]; 12 mg, fed): 0 (0)
- Treatment-related TEAE (healthy subjects [3]; 12 mg, fed): 2 (25)
- tolerability (healthy subjects [3]; healthy subjects, 0.5, 2, 6, and 12 mg for 14 days): well tolerated
- subjects with treatment-related TEAEs (all mild, gastrointestinal) (healthy subjects [3]; healthy subjects, MAD cohorts): 3 subjects
- proportion of subjects with adverse events (AEs) (healthy subjects [3]; healthy subjects, MAD cohorts, range over dose groups): 13-88%
- subjects with mild (Grade 1), transient increase in serum ALT (healthy subjects [3]; healthy subjects, 6 mg group, fed): one
- subjects with mild (Grade 1), transient increase in serum ALT (healthy subjects [3]; healthy subjects, 12 mg group, fed): 4 subjects
- safety and tolerability (healthy subjects [3]; healthy subjects, single and multiple daily doses up to 20 mg/d for 14 days): safe and well tolerated
- HDL-C (healthy subjects [4]): not HDL-C
- serum triglycerides, total and LDL-C, total and small LDL particles, TG/HDL-C ratio (healthy subjects [4]): Significant, dose-dependent reductions; also recorded: significant, dose-dependent improvements
